Measurements as given in patent publication US4217305A, “Phenylethanolamine derivatives” (Yamanouchi Pharmaceutical Co., Ltd., priority 1977, dated 1980).
Structures can show the parent of a compound that is named as a salt. Where two headings read alike, the source gives them in different places.

Legend:
Format in all cases: in vivo
α-Adrenergic = α-Adrenergic blocking action: antagonism of hypertensive response to phenylephrine in anesthetized rats; details: for ED50: Rattus norvegicus, iv, read-out: α-blocking (Rat) ED50; for α-blocking (Rat) ED50: i.v.
Description: A. α-Adrenergic blocking action: (a) The blood pressure was measured in rats anesthetized with urethane and treated with pentolinium.

β-Adrenergic = β-Adrenergic blocking action: antagonism of isoproterenol induced tachycardia in rats; details: reserpine pretreated, pentobarbital anesthetized rats, isoproterenol 0.1 μg/Kg iv.; for ED50: Rattus norvegicus, iv; for β-blocking (Rat) ED50: i.v.
Description: Bilateral vagotomy was performed at the neck. The effects of the test samples to antagonize the isoproterenol (0.1 μg/Kg iv.) induced tachycardia were measured and the results were shown in Table I.

[1] = test system: spontaneously hypertensive rats; assay: Antihypertensive effects in spontaneously hypertensive rats, oral administration; details: at 10 mg/Kg p.o., mean ± S.E. of 5 to 10 animals, measured indirectly from the tail
Description: B. Antihypertensive effects in spontaneously hypertensive rats: Oral administration: The systolic blood pressure was measured indirectly from the tail using a programmed electro-sphygmanometer (Nacro Bio-Systems Inc., PE-300) on spontaneously hypertensive rats having a systolic blood pressure of higher than 150 mmHg, the result being shown in Table II.

[2] = urethane anesthetized, pentolinium treated rats, phenylephrine 10 μg/Kg i.v.

SMILES | ED50 (α-Adrenergic; [2]) [mg/kg] | ED50 (β-Adrenergic) [mg/kg] | antihypertensive effect: change in systolic blood pressure [1] [mmHg] | further results
COc1cc(O)ccc1OCCNCC(O)c1ccc(C)c(S(N)(=O)=O)c1 (stereo not drawn) [Example 13, 5-{1-Hydroxy-2-[2-(4-hydroxy-2-methoxyphenoxy)ethylamino]ethyl}-2-methylbenzenesulfonamide] | 0.23 | 0.014 |  | 
COc1ccccc1OCC(C)NCC(O)c1ccc(C)c(S(N)(=O)=O)c1 (stereo not drawn) [69(i1), 5-{1-hydroxy-2-[2-(2-methoxyphenoxy)-1-methylethylamino]ethyl}-2-methylbenzenesulfonamide] |  |  |  | α-blocking (Rat) ED50 (α-Adrenergic; [2]): 0.24 mg/kg; antihypertensive effect: change in systolic blood pressure ([1]; 10 mg/kg): -28 ± 7.7 mmHg; β-blocking (Rat) ED50 (β-Adrenergic): 0.057 mg/kg
C=CCOc1ccccc1OCCNCC(O)c1ccc(C)c(S(N)(=O)=O)c1.Cl (stereo not drawn) [Example 18, 5-{2-[2-(2-Allyloxyphenoxy)ethylamino]-1-hydroxyethyl}-2-methylbenzenesulfonamide hydrochloride] |  |  | -34 ± 5.2 | 
CC(NCC(O)c1ccc(O)c(S(N)(=O)=O)c1)C1COc2ccccc2O1 (stereo not drawn) [70(i1'), 2-hydroxy-5-{1-hydroxy-2-[1-(1,4-benzodioxan-2-yl)ethylamino]ethyl}benzenesulfonamide] |  |  | -27 ± 6.1 | 
COc1ccccc1OCC(C)NCC(O)c1ccc(OC)c(S(N)(=O)=O)c1.Cl (stereo not drawn) [Example 34, 5-{1-Hydroxy-2-[2-(2-methoxyphenoxy)-1-methylethylamino]-ethyl}-2-methoxybenzenesulfonamide hydrochloride] | 0.068 | 0.28 | -20 ± 4.3 | 
CCOc1ccccc1OCCNCC(O)c1ccc(OC)c(S(N)(=O)=O)c1.Cl (stereo not drawn) [Example 61, 5-{1-Hydroxy-2-[2-(2-ethoxyphenoxy)ethylamino]ethyl}-2-methoxybenzenesulfonamide hydrochloride] |  |  | -54 ± 5.4 | 
CC(CCc1ccccc1)NCC(O)c1ccc(O)c(C(N)=O)c1 (stereo not drawn) [Labetalol, 5-[1-hydroxy-2-(1-methyl-3-phenyl-propyl)aminoethyl]salicylamide, reference compound] |  |  | -10 ± 3.6 | ED50 (α-Adrenergic): 1.1 mg/kg
COc1cc(CO)ccc1OCCNCC(O)c1ccc(C)c(S(N)(=O)=O)c1 (stereo not drawn) [Example 50] | 0.3 | 0.049 |  | 
COc1ccccc1OCC(C)NCC(O)c1ccc(C)c(S(N)(=O)=O)c1 (stereo not drawn) [69(i1 + i2), 5-{1-hydroxy-2-[2-(2-methoxyphenoxy)-1-methylethylamino]ethyl}-2-methylbenzenesulfonamide] |  |  |  | α-blocking (Rat) ED50 (α-Adrenergic; [2]): 0.27 mg/kg; antihypertensive effect: change in systolic blood pressure ([1]; 10 mg/kg): -43 ± 5.8 mmHg; β-blocking (Rat) ED50 (β-Adrenergic): 0.083 mg/kg
COc1cc(C)ccc1OCCNCC(O)c1ccc(C)c(S(N)(=O)=O)c1.Cl (stereo not drawn) [Example 46, 5-{1-Hydroxy-2-[2-(2-methoxy-4-methylphenoxy)ethylamino]-ethyl}-2-methylbenzenesulfonamide hydrochloride] |  |  | -20 ± 4.5 | 
COc1ccccc1OCC(C)NCC(O)c1ccc(C)c(S(N)(=O)=O)c1 (stereo not drawn) [69(i2), 5-{1-hydroxy-2-[2-(2-methoxyphenoxy)-1-methylethylamino]ethyl}-2-methylbenzenesulfonamide] |  |  |  | α-blocking (Rat) ED50 (α-Adrenergic; [2]): 0.054 mg/kg; antihypertensive effect: change in systolic blood pressure ([1]; 10 mg/kg): -32 ± 6.7 mmHg; β-blocking (Rat) ED50 (β-Adrenergic): 0.47 mg/kg
CCOc1ccccc1OCCNCC(O)c1ccc(O)c(S(N)(=O)=O)c1.Cl (stereo not drawn) [Example 62, 2-Hydroxy-5-{1-hydroxy-2-[2-(2-ethoxyphenoxy)ethylamino]-ethyl}benzenesulfonamide hydrochloride] |  |  | -47 ± 6.6 | 
Cc1ccc(C(O)CNCCOc2ccc(O)cc2)cc1S(N)(=O)=O.Cl (stereo not drawn) [Example 45, 5-{1-Hydroxy-2-[2-(4-hydroxyphenoxy)ethylamino]ethyl}-2-methylbenzenesulfonamide hydrochloride] | 0.86 | 0.013 |  | 
COc1ccccc1OCCNCC(O)c1ccc(OC)c(S(N)(=O)=O)c1.Cl (stereo not drawn) [Example 48, 5-{1-Hydroxy-2-[2-(2-methoxyphenoxy)ethylamino]ethyl}-2-methoxybenzenesulfonamide hydrochloride] |  |  | -49 ± 4.9 | 
CCOc1ccccc1OCCNCC(O)c1ccc(C)c(S(N)(=O)=O)c1.Cl (stereo not drawn) [Example 60, 5-{1-Hydroxy-2-[2-(2-ethoxyphenoxy)ethylamino]ethyl}-2-methylbenzenesulfonamide hydrochloride] |  |  | -31 ± 2.8 | 
Cc1ccc(C(O)CNCCOc2ccccc2CO)cc1S(N)(=O)=O (stereo not drawn) [Example 15, 5-{1-Hydroxy-2-[2-(2-hydroxymethylphenoxy)ethylamino]-ethyl}-2-methylbenzenesulfonamide] | 0.13 | 0.15 | -11 ± 4.3 | 
CCOc1cc(CO)ccc1OCCNCC(O)c1ccc(C)c(S(N)(=O)=O)c1 (stereo not drawn) [Example 52, 5-{1-Hydroxy-2-[2-(2-ethoxy-4-hydroxymethylphenoxy)ethylamino]ethyl}-2-methylbenzenesulfonamide] | 1.1 | 0.022 |  | 
CCOc1ccccc1OCC(C)NCC(O)c1ccc(C)c(S(N)(=O)=O)c1.Cl (stereo not drawn) [Example 39, 5-{1-Hydroxy-2-[2-(2-ethoxyphenoxy)-1-methylethylamino]-ethyl}-2-methylbenzenesulfonamide hydrochloride] | 0.066 | 0.27 | -11 ± 5.5 | 
CC(CCc1ccccc1)NCC(O)c1ccc(N)c(S(N)(=O)=O)c1 (stereo not drawn) [Example 64, 2-Amino-5-[1-hydroxy-2-(1-methyl-3-phenylpropylamino)ethyl]benzenesulfonamide] | 0.2 | 0.12 |  | 
Cc1ccc(C(O)CNCCOc2ccccc2O)cc1S(N)(=O)=O (stereo not drawn) [Example 63, 5-{1-Hydroxy-2-[2-(2-hydroxyphenoxy)ethylamino]ethyl}-2-methylbenzenesulfonamide] | 0.27 | 0.08 |  | 
COc1ccc(C(O)CNC(C)CCc2ccccc2)cc1S(N)(=O)=O.Cl (stereo not drawn) [Example 25, 5-[1-Hydroxy-2-(1-methyl-3-phenylpropylamino)ethyl]-2-methoxybenzenesulfonamide hydrochloride] | 1.3 | 0.035 |  | 
Cc1ccc(C(O)CNC(C)CCc2ccccc2)cc1S(N)(=O)=O.Cl (stereo not drawn) [Example 24, 5-[1-hydroxy-2-(1-methyl-3-phenylpropylamino)ethyl]-2-methylbenzenesulfonamide hydrochloride] |  |  | -27 ± 6.1 | 
COc1ccc(C(O)CNC(C)C2COc3ccccc3O2)cc1S(N)(=O)=O (stereo not drawn) [72(i1'), 5-{1-hydroxy-2-[1-(1,4-benzodioxan-2-yl)ethylamino]ethyl}-2-methoxybenzenesulfonamide hydrochloride (i1 ')] |  |  | -30 ± 4.3 | 
COc1cc(C(O)CNC(C)CCc2ccccc2)cc(S(N)(=O)=O)c1.Cl (stereo not drawn) [Example 30, 3-[1-Hydroxy-2-(1-methyl-3-phenylpropylamino)ethyl]-5-methoxybenzenesulfonamide hydrochloride] | 1.8 | 0.052 |  | 
